Test results as given in the NIST ThermoML archive (doi:10.1007/s10765-008-0410-4).

Conditions: Liquid, Vibrating tube method

CCCCn1cc[n+](C)c1.F[B-](F)(F)F [1-butyl-3-methylimidazolium tetrafluoroborate]
Conditions	mass density [kg/m3]
298.15 K, 280 kPa	1211.19
298.15 K, 5640 kPa	1213.63
298.15 K, 10620 kPa	1215.85
298.15 K, 15340 kPa	1217.77
298.15 K, 20640 kPa	1220.29
298.15 K, 25270 kPa	1222.18
298.15 K, 30050 kPa	1223.93
298.15 K, 35410 kPa	1226.07
298.15 K, 39610 kPa	1227.81
323.15 K, 730 kPa	1192.89
323.15 K, 5640 kPa	1195.3
323.15 K, 10610 kPa	1197.71
323.15 K, 15440 kPa	1200.01
323.15 K, 20460 kPa	1202.37
323.15 K, 25360 kPa	1204.64
323.15 K, 30740 kPa	1207.09
323.15 K, 35650 kPa	1209.29
323.15 K, 39850 kPa	1211.14
348.15 K, 210 kPa	1174.44
348.15 K, 5960 kPa	1177.75
348.15 K, 10480 kPa	1180.3
348.15 K, 15430 kPa	1182.72
348.15 K, 20870 kPa	1185.63
348.15 K, 25850 kPa	1188.16
348.15 K, 30110 kPa	1190.19
348.15 K, 35110 kPa	1192.88
348.15 K, 39610 kPa	1194.77
373.15 K, 470 kPa	1157.24
373.15 K, 5350 kPa	1160.25
373.15 K, 10080 kPa	1163.09
373.15 K, 15710 kPa	1166.39
373.15 K, 20970 kPa	1169.38
373.15 K, 25820 kPa	1172.07
373.15 K, 30120 kPa	1174.39
373.15 K, 35530 kPa	1177.22
373.15 K, 39820 kPa	1179.41
398.15 K, 870 kPa	1141.05
398.15 K, 6670 kPa	1144.53
398.15 K, 10490 kPa	1147.07
398.15 K, 15730 kPa	1150.32
398.15 K, 20980 kPa	1153.78
398.15 K, 25140 kPa	1156.3
398.15 K, 30890 kPa	1159.52
398.15 K, 35810 kPa	1162.4
398.15 K, 39560 kPa	1164.38
